Among the data in patent US20040224958A1, “Pyridopyrimidinone derivatives for treatment of neurodegenerative disease” (priority 2000, published 2004) are IC50 values, retold here.

Where two headings read alike, the source gives them in different places.

Assay [1] concerns the target cdk2/cyclinA (Homo sapiens, UniProt P24941). Briefly: Cyclin-Dependent Kinase Assay cdk2/cyclinA.
Experimental: Cyclin-Dependent Kinase Assays (cdk2/cyclinE, cdk2/cyclinA, cdc2/cyclinB)
All components except the ATP were added to the wells, and the plate was placed on a plate mixer for 2 minutes. The reaction was begun by addition of [^32P]ATP, and the plate was incubated at 25° C. for 15 minutes. The reaction was terminated by addition of 0.1 mL of 20% TCA. The plate was kept at 4° C. for at least 1 hour to allow the substrate to precipitate. The wells were then washed five times with 0.2 mL of 10% TCA and ^32p incorporation determined with a beta plate counter (Wallac Inc., Gaithersburg, Md.).
Assay [2] addresses cdc2/cyclinB (Homo sapiens, UniProt P06493). In words: Cyclin-Dependent Kinase Assay cdc2/cyclinB.
The target of assay [3] is cdk2/cyclinE (Homo sapiens, UniProt P24941). In words: Cyclin-Dependent Kinase Assay cdk2/cyclinE.
Assay [4] has as its target Cdk5/p25 (Homo sapiens, UniProt Q00535). In words: Cyclin-Dependent Kinase 5 High Throughput Screening (cdk5-HTS) Assay. It counts as biochemical. The note with it: high throughput screen. In outline:
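IC50 determined from 33P incorporation into GST-RbCOOH captured on glutathione plates and read by scintillation counting. Reaction: 1.0 μg/mL Cdk5/p25, 20 μM [γ33P]ATP, pH 7.4 Tris buffer with MgCl2 and DTT, 30 min at room temperature, stopped with EDTA.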

In assay [5] the target is cdk4/D (Homo sapiens, UniProt P11802). In words: Cyclin-Dependent Kinase 4 (cdk4) Assay. It counts as biochemical. The note with it: read-out: cdk4/D IC50.
Chain of cdk4/D (P11802 whole entry): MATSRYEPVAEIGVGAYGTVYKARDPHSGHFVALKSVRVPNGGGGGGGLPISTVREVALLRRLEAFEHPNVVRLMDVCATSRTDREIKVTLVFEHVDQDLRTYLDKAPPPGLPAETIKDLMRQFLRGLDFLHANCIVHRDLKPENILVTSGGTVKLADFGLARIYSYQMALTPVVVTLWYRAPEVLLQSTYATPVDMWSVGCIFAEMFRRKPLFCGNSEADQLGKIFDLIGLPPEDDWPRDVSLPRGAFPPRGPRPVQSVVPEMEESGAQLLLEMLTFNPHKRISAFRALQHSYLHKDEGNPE
Chain of cdk4/D (P24385 whole entry, further chain): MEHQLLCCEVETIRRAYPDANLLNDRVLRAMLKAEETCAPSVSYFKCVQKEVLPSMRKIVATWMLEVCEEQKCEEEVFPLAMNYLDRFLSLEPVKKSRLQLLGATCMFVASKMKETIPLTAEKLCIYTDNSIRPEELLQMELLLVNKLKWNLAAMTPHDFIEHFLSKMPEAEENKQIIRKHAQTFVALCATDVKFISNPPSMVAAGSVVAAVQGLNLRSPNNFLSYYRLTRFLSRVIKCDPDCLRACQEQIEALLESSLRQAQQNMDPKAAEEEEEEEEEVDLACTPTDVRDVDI

Chain of cdc2/cyclinB (P06493 whole entry): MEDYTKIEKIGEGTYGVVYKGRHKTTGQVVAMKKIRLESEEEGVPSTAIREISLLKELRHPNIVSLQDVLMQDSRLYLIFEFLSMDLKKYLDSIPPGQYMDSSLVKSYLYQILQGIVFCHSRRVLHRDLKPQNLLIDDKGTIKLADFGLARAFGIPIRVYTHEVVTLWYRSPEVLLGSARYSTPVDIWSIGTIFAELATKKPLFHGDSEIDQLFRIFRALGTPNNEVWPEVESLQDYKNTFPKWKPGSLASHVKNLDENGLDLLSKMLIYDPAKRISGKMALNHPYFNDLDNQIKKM
Chain of cdc2/cyclinB (P14635 whole entry, further chain): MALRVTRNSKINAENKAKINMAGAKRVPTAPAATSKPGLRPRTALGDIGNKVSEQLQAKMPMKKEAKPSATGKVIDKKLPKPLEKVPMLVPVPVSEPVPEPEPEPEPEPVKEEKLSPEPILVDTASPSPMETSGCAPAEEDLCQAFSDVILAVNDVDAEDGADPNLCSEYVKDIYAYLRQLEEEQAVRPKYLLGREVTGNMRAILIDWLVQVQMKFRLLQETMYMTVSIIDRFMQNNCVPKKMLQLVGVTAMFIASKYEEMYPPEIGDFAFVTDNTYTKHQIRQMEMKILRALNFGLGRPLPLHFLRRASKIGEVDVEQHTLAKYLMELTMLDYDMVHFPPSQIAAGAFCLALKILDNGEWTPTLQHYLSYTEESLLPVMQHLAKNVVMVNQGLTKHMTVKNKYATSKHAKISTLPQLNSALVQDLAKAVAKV

As for “2-(4-Bromo-3-trifluoromethyl-phenylamino)-8-cyclopentyl-8H-pyrido[2,3-d]pyrimidin-7-one [Example 561]”, the IC50 in assay [1] (read-out: cdk2/A IC50) worked out at 220 nM; in assay [2] (read-out: cdk1/B IC50), 350 nM; in assay [3] (read-out: cdk2/E IC50), 150 nM; in assay [4], 440 nM; in assay [5], 480 nM.
For “2-(4-Chloro-3-methyl-phenylamino)-8-isopropyl-8H-pyrido[2,3-d]pyrimidin-7-one [Example 416]” the same measures were 350 nM, 280 nM, 220 nM, 38 nM and 180 nM.
As to “8-(1-Ethyl-propyl)-2-(3-trifluoromethyl-phenylamino)-8H-pyrido[2,3-d]pyrimidin-7-one [Example 485]”, the IC50 in assay [1] (read-out: cdk2/A IC50) stood at 600 nM; in assay [2] (read-out: cdk1/B IC50) it was 241 nM; in assay [3] (read-out: cdk2/E IC50) it was 131 nM; in assay [4], 647 nM; in assay [5], 232 nM.
With “8-Cyclopentyl-2-(2,4,6-trifluoro-phenylamino)-8H-pyrido[2,3-d]pyrimidin-7-one [Example 473]”, the IC50 in assay [1] (read-out: cdk2/A IC50) was 330 nM; in assay [2] (read-out: cdk1/B IC50), 400 nM; in assay [3] (read-out: cdk2/E IC50) it was 470 nM; in assay [4], 67 nM; in assay [5] it was 510 nM.
The corresponding values for “8-Cyclopentyl-2-(3-fluoro-4-methoxy-phenylamino)-8H-pyrido[2,3-d]pyrimidin-7-one [Example 542]” are 75 nM, 85 nM, 35 nM, 7.7 nM and 9.5 nM.
For the compound “8-Cyclopropylmethyl-2-(1H-indazol-6-ylamino)-8H-pyrido[2,3-d]pyrimidin-7-one [Example 583]”, the IC50 in assay [1] (read-out: cdk2/A IC50) came out at 260 nM; in assay [2] (read-out: cdk1/B IC50), 355 nM; in assay [3] (read-out: cdk2/E IC50), 200 nM; in assay [4], 105 nM; in assay [5], 1300 nM.
On to `Cn1c(=O)ccc2cnc(Nc3ccccc3)nc21` [Example 285, 8-Methyl-2-phenylamino-81H-pyrido[2,3-d]pyrimidin-7-one], for which the IC50 came to 2800 nM in assay [1] (cdk2/A IC50); 865 nM in assay [2]; 2270 nM in assay [3] (cdk2/E IC50); 255 nM in assay [4]; 2750 nM in assay [5].
With `CCn1c(=O)ccc2cnc(Nc3ccc4[nH]ncc4c3)nc21` [Example 286, 8-Ethyl-2-(1H-indazol-5-ylamino)-8H-pyrido[2,3-d]pyrimidin-7-one], the IC50 was found to be 630 nM in assay [1] (cdk2/A IC50); 275 nM in assay [2]; 223 nM in assay [3] (cdk2/E IC50); 108 nM in assay [4]; 475 nM in assay [5].
Regarding `CCn1c(=O)ccc2cnc(Nc3ccc4[nH]nnc4c3)nc21` [Example 287, 2-(1H-Benzotriazol-5-ylamino)-8-ethyl-8H-pyrido[2,3-d]pyrimidin-7-one], the IC50 worked out at 365 nM in assay [1] (cdk2/A IC50); 350 nM in assay [2]; 147 nM in assay [3] (cdk2/E IC50); 81 nM in assay [4]; 810 nM in assay [5].
As for `CCn1c(=O)ccc2cnc(Nc3ccc(NC(=O)OC(C)(C)C)cc3)nc21` [Example 288, [4-(8-Ethyl-7-oxo-7,8-dihydro-pyrido[2,3-d]pyrimidin-2-ylamino)-phenyl]-carbamic acid tert-butyl ester], the IC50 in assay [1] (cdk2/A IC50) came to 1250 nM; in assay [2], 485 nM; in assay [3] (cdk2/E IC50), 1060 nM; in assay [4] it was 295 nM; in assay [5], 965 nM.
For `CCn1c(=O)ccc2cnc(Nc3ccc(O)cc3F)nc21` [Example 289, 8-Ethyl-2-(2-fluoro-4-hydroxy-phenylamino)-8H-pyrido[2,3-d]pyrimidin-7-one] the same measures were 2000 nM, 1250 nM, 1160 nM, 720 nM and 3250 nM.
